The values below come from paper PMC10614203, “Synthesis, Structure–Activity Relationships, Radiofluorination, and Biological Evaluation of [^18F]RM365, a Novel Radioligand for Imaging the Human Cannabinoid Receptor Type 2 (CB2R) in the Brain with PET” (Journal of Medicinal Chemistry, 2023).

Data set [1] in a line: In vivo metabolism, quantification of radiometabolites by radio-HPLC in brain and plasma. On the set-up: species or system mouse. The conditions noted are these: female CD-1 mice, 30 min p.i., i.v. The protocol: The good in vitro results obtained for [^18F]RM365 justified its further evaluation in vivo, and we proceeded with the investigation of radioligand metabolism in mouse. The brain as well as blood samples were obtained from two female CD-1 mice 30 min after intravenous administration of [^18F]RM365. About 90% of the radioactivity detected in the brain samples accounted for intact radioligand (Figure 8), while in blood plasma, the fraction of the intact radioligand represented only 55% of the detected radioactivity (Figure 8B). Accordingly, the absence of a significant fraction of radiometabolites of [^18F]RM365 in the brain indicates the suitability of this radioligand for neuroimaging.
Figure 8 In vivo metabolism of [^18F]RM365. […]
The samples were further processed for subsequent radio-chromatographic analyses. […] The activities of supernatants and precipitates were measured in an γ-counter (1480 WIZARD, Fa. PerkinElmer), and the extraction efficiencies were calculated as the ratio of the radioactivity in the supernatant to the radioactivity in the original sample (supernatant + precipitate). The supernatants from both extractions were combined, concentrated at 70 °C under an argon stream up to a remaining volume of 100 μL, and subsequently analyzed by analytical radio-HPLC with a gradient system as applied in Section 5.2.2.

Data set [2] is described as follows: Lipophilicity log D7.4, shake flask method, n-octanol/PBS. Type of data set: physicochemical. To be noted: n-octanol/PBS 0.01 M, pH 7.4, room temperature. The protocol: The most efficient protocol for the manual radiosynthesis of [^18F]RM365 was transferred to an automated synthesis module (Elysia-Raytest radiosynthesizer). For the biological evaluation, [^18F]RM365 was obtained with a moderate radiochemical yield of about 5% and high radiochemical purities (>99%), molar activity of about 80 GBq/μmol in a total synthesis time of 60 min (n = 6) starting with activities ranging from 8 to 13 GBq. […] RP and chiral HPLC analysis of the final product coeluted with the corresponding reference compound RM365 confirmed the identity and enantiopurity of the radioligand (Figure 5B). A log D7.4 of 3.0 ± 0.1 was determined by the shake flask method.[80],[81]
Log D7.4 of [^18F]RM365 was experimentally determined in n-octanol/PBS, 0.01 M, pH 7.4, at room temperature by the shake flask method. The measurement was performed twice in triplicate.[87]

Turning to `CC1(C)Cc2ccc(C#N)cc2[C@@H]1NC(=O)c1cc2cc([18F])ccc2[nH]1` [[^18F]RM365], the “intact radioligand, fraction of radioactivity in blood plasma” value in data set [1] came out at 55%. For the same compound, the logD in data set [2] was 3 ± 0.1.

One may read the logD as the decadic logarithm of the distribution of all forms, ionised or not, between an organic phase and buffer at a given pH. The low end stands for a more hydrophilic compound, the high end for a more lipophilic compound.
